Legend:
Type in all cases: in vivo
Agrostis tenuis (AGSTE) = test: Herbicidal early post-emergence action (Table A1); settings: 1900 g/ha; scored visually 9 to 12 days after treatment; 100% = plants have died, 0% = like control plants
Protocol: (§1) Seeds of monocotyledonous and dicotyledonous weed plants were placed in 96-well microtiter plates in quartz sand and grown in a climatized chamber under controlled growth conditions. 5 to 7 days after sowing, the test plants were treated at the cotyledon stage. The compounds according to the invention, formulated in the form of emulsion concentrates (EC), were applied with a water application rate of the equivalent of 2200 liters per hectare. After the test plants had been left to stand in the climatized chamber for 9 to 12 days under optimum growth conditions, the effect of the preparations was scored visually in comparison to untreated controls. For example, 100% activity=the plants have died, 0% activity=like control plants. Tables A1 to A8 below show the effects of selected compounds of the general formula (I) according to Table 1 on various harmful plants and an application rate corresponding to 1900 g/ha, which were obtained by the experimental procedure mentioned above.

[1] = system: Diplotaxis tenuifolia (DIPTE); test: Herbicidal early post-emergence action (Table A5); settings: 1900 g/ha; scored visually 9 to 12 days after treatment; 100% = plants have died, 0% = like control plants
Protocol: as §1

[2] = system: harmful plants AGSTE, DIPTE, LOLPE, MATCH, POAAN, SETVI, STEME and VERPE; test: Herbicidal early post-emergence action, summary of Tables A1-A8; settings: application rate of 1900 g of active ingredient per hectare; summary in words
Protocol: as §1, with “plants.” for “plants. Tables A1 to A8 below show the effects of selected compounds of the general formula (I) according to Table 1 on various harmful plants and an application rate corresponding to 1900 g/ha, which were obtained by the experimental procedure mentioned above.”
Tables A1 to A8 below show the effects of selected compounds of the general formula (I) according to Table 1 on various harmful plants and an application rate corresponding to 1900 g/ha, which were obtained by the experimental procedure mentioned above.
As the results of Tables A1-A8 show, compounds no.

Poa annua (POAAN) = test: Herbicidal early post-emergence action (Table A3); settings: 1900 g/ha; scored visually 9 to 12 days after treatment; 100% = plants have died, 0% = like control plants
Protocol: as §1

[3] = system: Matricaria chamonilla (MATCH); test: Herbicidal early post-emergence action (Table A6); settings: 1900 g/ha; scored visually 9 to 12 days after treatment; 100% = plants have died, 0% = like control plants
Protocol: as §1

Lolium perenne (LOLPE) = test: Herbicidal early post-emergence action (Table A2); settings: 1900 g/ha; scored visually 9 to 12 days after treatment; 100% = plants have died, 0% = like control plants
Protocol: as §1

Setaria viridis (SETVI) = test: Herbicidal early post-emergence action (Table A4); settings: 1900 g/ha; scored visually 9 to 12 days after treatment; 100% = plants have died, 0% = like control plants
Protocol: as §1

Stellaria media (STEME) = test: Herbicidal early post-emergence action (Table A7); settings: 1900 g/ha; scored visually 9 to 12 days after treatment; 100% = plants have died, 0% = like control plants
Protocol: as §1

[4] = system: corn (ZEAMX, var. Aventura); test: Pre-emergence crop plant compatibility (Table E1); settings: dosage 80 g/ha, scored after about 3 weeks, 0% = like control plants
Source text: (§2) Seeds of monocotyledonous and dicotyledonous crop plants were placed in plastic or organic plant pots and covered with soil. The compounds of the invention, formulated in the form of wettable powders (WP) or as emulsion concentrates (EC), were then applied to the surface of the covering soil as aqueous suspension or emulsion with addition of 0.5% additive at a water application rate equivalent to 600 l/ha (converted). After the treatment, the pots were placed in a greenhouse and kept under good growth conditions for the test plants. After about 3 weeks, the effect of the preparations was scored visually in comparison with untreated controls as percentages. For example, 100% activity=the plants have died, 0% activity=like control plants.

[5] = system: soybean (GLXMA, var. Sultana); test: Pre-emergence crop plant compatibility (Table E1); settings: dosage 80 g/ha, scored after about 3 weeks, 0% = like control plants
Source text: as §2

[6] = system: wheat (TRZAS, var. Triso); test: Pre-emergence crop plant compatibility (Table E1); settings: dosage 80 g/ha, scored after about 3 weeks, 0% = like control plants
Source text: as §2

Veronica persica (VERPE) = test: Herbicidal early post-emergence action (Table A8); settings: 1900 g/ha; scored visually 9 to 12 days after treatment; 100% = plants have died, 0% = like control plants
Protocol: as §1

Structure (SMILES) | Early post-emergence effect against Agrostis tenuis (AGSTE) (Agrostis tenuis (AGSTE)) | Early post-emergence effect against Diplotaxis tenuifolia (DIPTE) [1] | herbicidal activity against the harmful plants of Tables A1-A8 in early post-emergence treatment [2] | Early post-emergence effect against Poa annua (POAAN) (Poa annua (POAAN)) | also measured
Fc1cccc(Oc2ccccn2)c1-c1cc(C(F)F)on1 [Example 1-8] | 80% | 80% | very good herbicidal activity |  | 
Cc1cc(-c2ccccc2Oc2ccc(Cl)cn2)ncn1 [Example 1-108] | 80% |  | very good herbicidal activity | 80% | Early post-emergence effect against Matricaria chamonilla (MATCH) [3]: 80%
FC(F)(F)c1cc(-c2ccccc2Oc2ccc(Cl)cn2)on1 [Example 1-113] | 100% |  | very good herbicidal activity | 100% | Early post-emergence effect against Matricaria chamonilla (MATCH) [3]: 80%
Cc1cc(C)c(-c2cc(C(F)F)no2)c(Oc2ccc(Cl)cn2)c1 [Example 1-78] | 100% |  | very good herbicidal activity | 100% | Early post-emergence effect against Lolium perenne (LOLPE) (Lolium perenne (LOLPE)): 80%
Cc1cc(-c2ccccc2Oc2ncc(Cl)cc2F)ncn1 [Example 1-109] | 80% | 80% | very good herbicidal activity | 100% | 
FC(F)(F)c1cccc(-c2ccccc2Oc2ccc(Cl)cn2)n1 [Example 1-49] |  |  | very good herbicidal activity |  | Early post-emergence effect against Setaria viridis (SETVI) (Setaria viridis (SETVI)): 100%; Early post-emergence effect against Stellaria media (STEME) (Stellaria media (STEME)): 80%
Cc1cc(F)c(-c2cc(C(F)F)no2)c(Oc2ccc(Cl)cn2)c1 [Example 1-88] | 100% |  | very good herbicidal activity | 100% | Early post-emergence effect against Setaria viridis (SETVI) (Setaria viridis (SETVI)): 80%
Cn1nc(C(F)F)cc1-c1cc(F)ccc1Oc1ccc(Cl)cn1 [Example 1-32] | 80% | 80% | very good herbicidal activity |  | 
Fc1cccnc1Oc1cccc(F)c1-c1cc(C(F)F)on1 [Example 1-14] |  | 80% | very good herbicidal activity |  | 
Fc1cc(Cl)cnc1Oc1ccccc1-c1cc(C(F)(F)F)no1 [Example 1-112] | 100% |  | very good herbicidal activity | 100% | Early post-emergence effect against Matricaria chamonilla (MATCH) [3]: 80%
FC(F)c1cc(-c2ccccc2Oc2ncc(Cl)cn2)on1 [US 2016/ 333000 No. 53] |  |  |  |  | Crop plant compatibility in pre-emergence, ZEAMX (damage to corn) [4]: 50%; Crop plant compatibility in pre-emergence, GLXMA (damage to soybean) [5]: 80%; Crop plant compatibility in pre-emergence, TRZAS (damage to wheat) [6]: 20%
Fc1cccc(Oc2ncc(Cl)cn2)c1-c1cc(C(F)F)no1 [US 2016/ 333000 No. 144] |  |  |  |  | Crop plant compatibility in pre-emergence, ZEAMX (damage to corn) [4]: 30%; Crop plant compatibility in pre-emergence, GLXMA (damage to soybean) [5]: 100%; Crop plant compatibility in pre-emergence, TRZAS (damage to wheat) [6]: 70%
Cc1ccc(Oc2ccccc2-c2cccc(C(F)(F)F)n2)nc1 [Example 1-51] |  |  | very good herbicidal activity |  | Early post-emergence effect against Matricaria chamonilla (MATCH) [3]: 80%
Fc1cccc(Oc2ncc(C(F)(F)F)cc2Cl)c1-c1cc(C(F)(F)F)on1 [Example 1-5] |  | 80% | very good herbicidal activity |  | 
Cn1nc(-c2c(F)cccc2Oc2ncccc2F)cc1C(F)F [Example 1-84] |  |  | very good herbicidal activity |  | Early post-emergence effect against Veronica persica (VERPE) (Veronica persica (VERPE)): 80%

— patent US12052991B2, “Substituted pyridinyloxybenzenes and salts thereof and use thereof as herbicidal agents” (Bayer Aktiengesellschaft, priority 2018, dated 2024)
